Results as given in US11903386B2, “Strigolactone analogs and their usage in plant control” (King Abdullah University of Science and Technology, priority 2016, dated 2024).
Where two headings read alike, the source gives them in different places.

Key:
OsD14 [1] = molecular target: T1, OsD14 (Oryza sativa subsp. japonica, UniProt Q10QA5); experiment: In vitro hydrolysis assay with OsD14 (HPLC); assay type: biochemical, rice; details: 10 μM substrate, 37° C.
T1 construct: made in house; host or cells: E. coli BL21 (DE3)
T1 sequence (Q10QA5 1-318): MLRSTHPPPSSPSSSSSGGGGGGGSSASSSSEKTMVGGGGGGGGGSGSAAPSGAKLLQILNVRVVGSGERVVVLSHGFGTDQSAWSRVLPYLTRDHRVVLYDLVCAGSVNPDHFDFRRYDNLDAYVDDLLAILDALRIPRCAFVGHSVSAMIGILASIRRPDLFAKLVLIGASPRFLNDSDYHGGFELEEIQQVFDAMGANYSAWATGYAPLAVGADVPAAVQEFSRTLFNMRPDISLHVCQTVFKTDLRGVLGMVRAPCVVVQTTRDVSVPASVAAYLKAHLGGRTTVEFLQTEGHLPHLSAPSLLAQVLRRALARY
Source text: Striga hermonthica ShHTL7 cDNA, GenBank accession KR013127 was kindly provided by Prof. Tadao Asami (The University of Tokyo, Japan). Arabidopsis thaliana D14 (AtD14) cDNA, GenBank accession AY097402 was synthesized and cloned into pUC57 (GenScript). ShHTL7 and OsD14 cDNAs were amplified by RT-PCR using the primers shown in Table 2, digested with BamHI and XhoI, and ligated into BamHI/XhoI digested pGEX-6P-1 expression vector (GE Healthcare). Integrity of plasmids was confirmed by sequencing (KAUST Bioscience Core Lab). The plasmids were then transformed into E. coli BL21 (DE3) cells. The cells were grown in LB broth containing ampicillin ([…]), incubated at 37° C. until OD600 of 0.6 and induced with 0.1 mM isopropyl-β-D-thiogalactopyranoside (IPTG) at 16° C. for 16 h. […]
The hydrolysis of GR24 and MPs by ShHTL7/OsD14 was performed in a total volume of 0.5 ml of PBS buffer containing 10 μM of substrate. […] Hydrolysis of substrates was monitored by HPLC analysis using an Zorbax Eclipse Plus C18 column (3.5 μm, 2.1×150 mm), eluted by a gradient from 10% to 90% acetonitrile in water within 15 min and keeping final condition for 4 min. […] Eluted compounds were detected using a Diode Array Detector. Amounts of remaining substrates were determined by calculating corresponding peaks, in comparison to that of internal standard.

OsD14 [2] = molecular target: T1, OsD14; experiment: YLG (Yoshimulactone Green) competitive hydrolysis assay; assay type: biochemical, rice
Source text: Striga hermonthica ShHTL7 cDNA, GenBank accession KR013127 was kindly provided by Prof. Tadao Asami (The University of Tokyo, Japan). Arabidopsis thaliana D14 (AtD14) cDNA, GenBank accession AY097402 was synthesized and cloned into pUC57 (GenScript). ShHTL7 and OsD14 cDNAs were amplified by RT-PCR using the primers shown in Table 2, digested with BamHI and XhoI, and ligated into BamHI/XhoI digested pGEX-6P-1 expression vector (GE Healthcare). Integrity of plasmids was confirmed by sequencing (KAUST Bioscience Core Lab). The plasmids were then transformed into E. coli BL21 (DE3) cells. The cells were grown in LB broth containing ampicillin ([…]), incubated at 37° C. until OD600 of 0.6 and induced with 0.1 mM isopropyl-β-D-thiogalactopyranoside (IPTG) at 16° C. for 16 h. Harvested cells were re-suspended in lysis buffer: 50 mM Tris-HCl (pH 8.0), 200 mM NaCl, 0.5% Tween-20 and 2 mM dithiothreitol (DTT). After sonication on ice for 10 mins, the lysate was centrifuged at 25,000 rpm for 30 min at 4° C. Supernatant was allowed to bind to glutathione-sepharose beads (GE Healthcare) for 2 h at 4° C., washed 3 times with buffer (50 mM Tris-HCl (pH 8.0), 200 mM NaCl, 2 mM DTT), and eluted by cleaving GST moiety with PreScission™ Protease (GE Healthcare) at 4° C. overnight. Eluted protein was further purified by gel filtration using HiLoad 16/60 Superdex200 prep grade column (GE Healthcare) on an AKTA prime system (GE Healthcare) in gel filtration buffer (10 mM HEPES pH 7.5, 50 mM KCl and 2 mM DTT). Protein eluted as a sharp single peak and purity was judged by 4-15% SDS-PAGE (Bio-Rad). Purified protein was concentrated using an Amicon 10K filter unit (Merck Millipore) and stored at −80° C. until use. Similar expression and purification protocol was followed for OsD14 protein, except that OsD14 was eluted from Glutathione resins using 0.2 mM reduced Glutathione (Sigma) without cutting GST tag.
In vitro YLG hydrolysis assays were performed as described by Tsuchiya et al., 2015. Hydrolysis assays were carried out using 0.15 μM of recombinant protein OsD14 in a reaction buffer (100 mM PBS buffer, pH 7.3) with 0.1% dimethylsulfoxide (DMSO) at a 300 μl volume on a 96-well black plate (Thermo). For competitive assays, (±) GR24 and (±) MPs at range between 0.03 to 10 μM (or 100 μM) were co-incubated with 0.3 μM of YLG and reacted at 30° C. incubator for 15 min. Fluorescent intensity was measured with excitation at 485 nm and detected at 535 nm. IC50 values were calculated online (http://www.ic50.tk/index.html). Later, values were converted to the existing conditions when treated by 1.0 μM of recombinant proteins.

S. hermonthica seeds = experiment: Striga hermonthica seed germination bioassay; assay type: in vivo; details: for Relative activity in inducing S. hermonthica seed germination: comparison between compounds
Method: Parasitic weed seeds (S. hermonthica and P. ramosa) germination activity was recorded as described previously (Jamil et al., 2012). Six pre-conditioned seed discs were placed in a 90 mm petri-dish containing a filter paper ring wetted with 0.9 ml sterile MilliQ water. […] GR24 solutions with equal concentrations and sterile MilliQ water were included as a positive and negative control, respectively. After application, seeds were incubated at 30° C./25° C. in the dark for two days. Germination (seeds with radical emerging through seed coat) was scored under a binocular microscope, and germination rate (%) was calculated. Statistical analyses were carried out using statistical software package R (version 3.2.2). Dose-response curves and Half Maximum Effective Concentrations (EC50) were calculated to determine optimum amount of MPs. Synthetic strigolactone analog GR24 was used as reference to estimate efficacy of selected compounds. EC50 and estimated response were calculated using drc package (https://cran.r390 project.org/web/packages/drc/) with a Four Parameter Logistic Curve (Dose Response Curve) (Ritz and Streibig, 2005).

Arabidopsis seedlings = experiment: Arabidopsis hypocotyl elongation assay; assay type: in vivo; details: 1.0 μM
Method: Sterilized Arabidopsis seeds were sown on half strength MS (with 0.5% sucrose+1% agar, 0.5 g L-1 MES, pH 5.7) plates supplemented with MPs or GR24 (at 1.0 μM). Plates were stored at 4° C. in darkness for 3 days. To initiate germination, plates were exposed to continuous white light for 24 h then transferred to continuous monochromatic red light (160 Lux, 22° C.) conditions for another 4 days. For hypocotyl length measurement, at least 30 seedlings were measured using the publically available ImageJ software (http://rsbweb.nih.gov/ij/) after taking digital photographs. Monochromatic red light source was applied as described previously (Wu and Yang, 2010). Light flow rates were measured using a Li250 quantum photometer (Li-Cor, Lincoln, NE, USA).

| SMILES | Hydrolysis rate by OsD14 (OsD14 [1]) | IC50 (OsD14 [2]; with SE (n=3), read-out: IC50, competitive inhibition of OsD14 mediated YLG hydrolysis) [µM] | Relative activity in inducing S. hermonthica seed germination (S. hermonthica seeds) | Striga germination activity (EC50) relative to GR24, times weaker (S. hermonthica seeds; in vivo) | IC50 (OsD14 [2]) [µM] | Inhibition of hypocotyl growth (Arabidopsis seedlings) |
| --- | --- | --- | --- | --- | --- | --- |
| COC(=O)/C(=C/OC1C=C(C)C(=O)O1)c1ccc([N+](=O)[O-])cc1 (racemic) [MP1, (E)-methyl 3-(4-methyl-5-oxo-2,5-dihydrofuran-2-yloxy)-2-(4-nitrophenyl)acrylate] | highest hydrolysis rate | 2.41 ± 0.175 | the most potent compound | around 17 times | – | – |
| COC(=O)/C(=C/OC1C=C(C)C(=O)O1)c1ccccc1 (racemic) [MP3, (E)-methyl 3-(4-methyl-5-oxo-2,5-dihydrofuran-2-yloxy)-2-phenylacrylate] | finally MP3 | – | less active than MP1 | – | 10.1 ± 2.94 | – |
| COC(=O)/C(=C/OC1C=C(C)C(=O)O1)c1ccc(Cl)cc1 (stereo not shown) [MP7] | – | – | highest germination activity | – | 4.46 ± 0.8 | stronger inhibitory effect than GR24 |
